From ChEMBL document CHEMBL1269002, “A protecting group-free synthesis of deazathiamine: a step toward inhibitor design” (Bioorg Med Chem Lett, 2010)

Tests used:
[1] = Inhibition of Mycobacterium tuberculosis 2-hydroxy-3-oxoadipate synthase-catalyzed reduction of ferricyanide
[2] = Competitive inhibition of Mycobacterium tuberculosis 2-hydroxy-3-oxoadipate synthase-catalyzed reduction of ferricyanide

| SMILES | IC50 [1] [µM] | Ki [2] [µM] |
| --- | --- | --- |
| Cc1ncc(Cc2csc(CCO)c2C)c(N)n1 [3-DEAZATHIAMINE] | 144 | 76 |
| Cc1ncc(Cc2csc(CCOP(=O)(O)OP(=O)(O)O)c2C)c(N)n1 | 6.7 | 3.5 |
